The values that follow come from PMC4685925, “Exploring architectures displaying multimeric presentations of a trihydroxypiperidine iminosugar” (Beilstein Journal of Organic Chemistry, 2015).

This assay addresses T1, amyloglucosidase (Aspergillus niger, UniProt P69328).
T1 construct: gene GLAA
The assay can be described thus: commercial glycosidase inhibition assay ([…] inhibition at […]; IC50 determined). It is filed as biochemical.

T1 sequence (P69328 25-640): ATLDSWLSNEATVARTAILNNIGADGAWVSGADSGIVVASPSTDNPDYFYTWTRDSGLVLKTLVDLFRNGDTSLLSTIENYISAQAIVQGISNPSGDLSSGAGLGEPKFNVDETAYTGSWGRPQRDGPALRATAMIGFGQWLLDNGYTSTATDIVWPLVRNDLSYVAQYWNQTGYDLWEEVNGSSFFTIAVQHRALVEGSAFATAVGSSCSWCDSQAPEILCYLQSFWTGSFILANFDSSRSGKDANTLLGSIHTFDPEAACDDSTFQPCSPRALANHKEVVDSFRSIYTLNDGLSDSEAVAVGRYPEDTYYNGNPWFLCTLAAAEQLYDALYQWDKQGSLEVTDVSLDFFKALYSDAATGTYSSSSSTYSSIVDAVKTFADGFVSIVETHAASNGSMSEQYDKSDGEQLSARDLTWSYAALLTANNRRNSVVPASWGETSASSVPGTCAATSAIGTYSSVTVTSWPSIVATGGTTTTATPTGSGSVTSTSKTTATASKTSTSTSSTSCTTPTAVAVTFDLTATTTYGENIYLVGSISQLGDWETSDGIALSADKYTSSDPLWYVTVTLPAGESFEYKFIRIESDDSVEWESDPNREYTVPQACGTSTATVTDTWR

Broadly, the IC50 is the concentration that gives 50% inhibition. In turn, `NCc1cn(CCCN2C[C@@H](O)C(O)[C@H](O)C2)nn1` [compound 15, Deprotected monovalent iminosugar 15] showed a concentration for half-maximal inhibition (IC50) of 1100 µM.
